In article PMC12311136 (Nature Communications, 2025):

What was measured:
Format in all cases: binding
[1] = target: T1, ALA1 Loop2 (410–914 aa) (Arabidopsis thaliana, UniProt P98204); test: bio-layer interferometry, liposome-loaded APS sensor
T1 sequence (P98204 410-914): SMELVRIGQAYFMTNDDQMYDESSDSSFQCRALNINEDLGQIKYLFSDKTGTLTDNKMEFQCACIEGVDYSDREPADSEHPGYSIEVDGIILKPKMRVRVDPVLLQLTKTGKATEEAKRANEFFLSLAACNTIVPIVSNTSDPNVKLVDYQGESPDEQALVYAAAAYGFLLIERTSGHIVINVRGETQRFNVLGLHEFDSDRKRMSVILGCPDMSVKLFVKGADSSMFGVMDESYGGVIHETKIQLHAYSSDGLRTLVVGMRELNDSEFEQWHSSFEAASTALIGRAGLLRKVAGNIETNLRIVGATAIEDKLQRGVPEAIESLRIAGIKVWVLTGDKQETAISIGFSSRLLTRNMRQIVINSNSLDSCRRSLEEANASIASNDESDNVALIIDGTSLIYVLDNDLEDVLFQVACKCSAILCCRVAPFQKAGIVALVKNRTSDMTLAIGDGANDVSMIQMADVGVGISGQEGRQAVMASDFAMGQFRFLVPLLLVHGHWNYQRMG

[2] = target: T2, ALA1 Loop1 (151–329 aa) (Arabidopsis thaliana, UniProt P98204); test: as above
T2 sequence (P98204 151-329): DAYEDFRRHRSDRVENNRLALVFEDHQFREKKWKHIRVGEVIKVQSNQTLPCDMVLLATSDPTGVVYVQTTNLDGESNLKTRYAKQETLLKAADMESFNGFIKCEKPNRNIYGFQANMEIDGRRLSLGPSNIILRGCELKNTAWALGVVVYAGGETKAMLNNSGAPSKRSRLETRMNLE

[3] = target: T3, DRP1A (Arabidopsis thaliana, UniProt P42697); test: bio-layer interferometry, POPC background subtracted; conditions: 3% lipid in POPC liposomes; HEPES pH 7.5, 100 mM NaCl
T3 sequence (P42697 1-610): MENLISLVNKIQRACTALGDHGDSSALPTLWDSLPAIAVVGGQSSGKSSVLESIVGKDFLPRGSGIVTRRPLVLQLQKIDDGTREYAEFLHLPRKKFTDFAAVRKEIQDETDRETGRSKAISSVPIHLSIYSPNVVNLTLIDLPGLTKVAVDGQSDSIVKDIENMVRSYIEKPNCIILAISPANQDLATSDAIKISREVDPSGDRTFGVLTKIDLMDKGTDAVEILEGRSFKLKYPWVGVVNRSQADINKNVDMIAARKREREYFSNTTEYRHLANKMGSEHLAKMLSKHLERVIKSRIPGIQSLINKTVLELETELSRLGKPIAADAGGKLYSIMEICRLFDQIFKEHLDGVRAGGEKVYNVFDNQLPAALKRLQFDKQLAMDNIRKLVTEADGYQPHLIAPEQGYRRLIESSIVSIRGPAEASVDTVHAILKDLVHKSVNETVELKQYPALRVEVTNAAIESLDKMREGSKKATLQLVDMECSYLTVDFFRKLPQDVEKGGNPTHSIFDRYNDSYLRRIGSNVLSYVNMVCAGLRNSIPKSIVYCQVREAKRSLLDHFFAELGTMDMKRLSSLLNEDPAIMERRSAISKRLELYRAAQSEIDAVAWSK

[4] = target: T1, ALA1 Loop2 (410–914 aa); test: as above; conditions: 3% lipid in POPC liposomes; HEPES pH 7.5, 100 mM NaCl
[5] = target: T3, DRP1A; test: bio-layer interferometry, liposome-loaded APS sensor

Row | Compound | Kd [1] [µM] | Kd [2] [µM] | bio-layer interferometry, POPC background subtracted [3] | bio-layer interferometry, POPC background subtracted [4] | Kd [5] [µM]
1 | CCCCCCCC/C=C\CCCCCCCC(=O)OC[C@H](COP(=O)(O)O[C@H]1[C@H](O)[C@@H](O)[C@H](OP(=O)(O)O)[C@@H](O)[C@H]1O)OC(=O)CCCCCCC/C=C\CCCCCCCC [PI4P] | 2.21 | 6.05 | followed by weaker binding to PI4P and PS liposomes |  | 
2 | CCCCCCCC/C=C\CCCCCCCC(=O)OC[C@H](COP(=O)(O)O[C@H]1[C@H](O)[C@@H](OP(=O)(O)O)[C@H](O)[C@@H](O)[C@H]1O)OC(=O)CCCCCCC/C=C\CCCCCCCC [PI5P] |  |  |  | highest near-steady-state binding was observed with PS, PI4P and PI5P liposomes | 
3 | CCCCCCCC/C=C\CCCCCCCC(=O)OC[C@H](COP(=O)(O)O[C@@H]1[C@H](O)[C@H](O)[C@@H](OP(=O)(O)O)[C@H](OP(=O)(O)O)[C@H]1O)OC(=O)CCCCCCC/C=C\CCCCCCCC [PI(4,5)P2] |  |  |  |  | 1.23
4 | CCCCCCCC/C=C\CCCCCCCC(=O)OC[C@H](COP(=O)(O)OC[C@H](N)C(=O)O)OC(=O)CCCCCCC/C=C\CCCCCCCC [PS] |  |  | followed by weaker binding to PI4P and PS liposomes | highest near-steady-state binding was observed with PS, PI4P and PI5P liposomes | 
